The values that follow come from patent publication US9656995B2, “Triazine derivative” (Carna Biosciences, Inc., priority 2013, dated 2017).

“Also recorded” adds a separate entry of the source. Some results are limits rather than exact numbers.

For data set [1], the target named is T1, BTK (Homo sapiens, UniProt Q06187).
T1 construct: endogenous in cells; host or cells: Ramos cells (2G6.4C10, ATCC No. CRL-1923)
Put plainly: Intracellular BTK auto-phosphorylation activity inhibition test in Ramos cells. To be noted: test compound 0.3 μM, anti-IgM stimulation, pY223, read-out: BTK Phosphorylation inhibiting activity. It counts as cell-based. The protocol: Intracellular BTK Auto-Phosphorylation Activity Inhibition Test
(Culture of Cells to be Used)
Ramos cells (2G6.4C10, ATCC No. CRL-1923) were cultured in a T75 flask containing RPMI-1640 medium (GIBCO, #A10491-01) supplemented with 10% FBS (AusGene) and 5% penicillin-streptomycin (Nacalai Tesque, Inc.) (hereinafter referred to as growth medium) in a 5% CO2 incubator.
(Addition of the Compound to be Tested)
The cultured Ramos cells were diluted to a cell density of 7.5×10^6 cells/mL with a serum-free RPMI-1640 (hereinafter referred to as medium) and kept at 37° C. for 45 minutes. The cell suspension was dispensed in 1 mL aliquots into 2.0 mL tubes. […]
To the pellets obtained by recovering the cells via centrifugation, 100 μL of a lysis buffer [RIPA Buffer(×1) (Cell Signaling Technology, Inc.) supplemented with 1% Phosphatase inhibitor Cacktail 3 (Sigma Corporation, No. P0044), 1% Phosphatase inhibitor Cacktail (Nacalai Tesque, Inc., No. 07575) and 1 mM phenylmethylsulfonyl fluoride (PMSF)] was added and stirred gently and then allowed to stand for 10 minutes. The supernatant was recovered by centrifugation (15,000 rpm, 15 minutes) and the protein level was quantified. […]

For data set [2], the system named is passive cutaneous anaphylaxis reaction (PCA reaction). Put plainly: Passive cutaneous anaphylaxis reaction in mouse. The class given is in vivo. To be noted: ICR mouse, oral, 3.0 mg/mL at 10 mL/kg, vs solvent group (FIG. 2). The source says: Test of Passive Cutaneous Anaphylaxis Reaction in Mouse
Since BTK plays an important role in FcεRI signal transmission in a mast cell, it was investigated whether a mast cell-involving immediate allergic reaction, namely, passive cutaneous anaphylaxis reaction (PCA reaction), which is an immediate allergic reaction involving mast cell, was inhibited by the administration of the compound.
(Preparation of Test Compound Solution)
DMSO, polyethylene glycol 400 (PEG#400, Nacalai Tesque, Inc. #28215-95), and 30% (w/v) hydroxypropyl-β-cyclodextrin aqueous solution (HP-β-CD, Sigma Corporation, #332607-500) were successively added to the test compound in this order, and mixed thoroughly to prepare a test compound solution (solvent composition: 5% solution of test compound in DMSO, 30% PEG#400, 65% HP-β-CD [30% (w/v) aqueous solution]). In the solvent control group, a DMSO solution was used instead of the solution of the test compound in DMSO.
An anti DNP-IgE monoclonal antibody (50 μg/mL, Santa Cruz Biotechnology, Inc., #sc-69695) was intradermally administered to both auricles in an ICR mouse under systemic anesthesia (10 μL/site). […] The absorbance of the resultant filtrate at 620 nm was measured, and used as an index of the dye leakage level. […]

Data set [3] deals with BCR signal in the Ramos cells. Put plainly: Inhibition test on the change of Ramos intracellular calcium ion (anti-IgM BCR stimulation). The following applies: 0.003-1 μM, anti-IgM 2.0 μg/mL (FIG. 1). The class given is cell-based. The protocol:
Inhibition Test on the Change of Ramos Intracellular Calcium Ion
The intracellular BTK inhibition by the compounds of the invention was verified by measuring the effects of the compounds of the invention on “anti-IgM antibody BCR stimulation-induced intracellular calcium influx”.
(Addition of Cell Suspension and Calcium Indicator)
One day before measurement, the Ramos cells were cultured after suspended again at a cell density of 1.0×10^6 cells/mL in a fresh growth medium (growth medium as used in Test Example 2), and the cells were recovered next day by centrifugation and washed with RPMI-1640 medium supplemented with 5% penicillin-streptomycin (Nacalai Tesque, Inc.) (Medium 1). These cells were suspended again at a cell density of 2.0×10^6 cells/mL in RPMI-1640 medium supplemented with 1% Ultra Low IgG FBS (GIBCO, #16250) and 5% penicillin-streptomycin (Nacalai Tesque, Inc.) (Medium 2), and thereafter each 100 μL of the cell suspension was added to each well of a poly lysine-coated microplate (BD BioCoat™, #356692), centrifuged (700 rpm, 3 minutes) and then incubated for 1 hour in a 5% CO2 incubator at 37° C. […]
Concentration of the Ramos intracellular calcium ion was measured as a fluorescent intensity of the calcium indicator Fluo-8NW using a microplate reader (SynergyH1) (Ex/Em=490/525 nm). […]
On the technique in general: Calcium assays in cells follow changes in intracellular calcium, usually with a dye or a luminescent sensor.

Data set [4] deals with collagen-induced arthritis. Put plainly: Mouse collagen-induced arthritis model. The class given is in vivo. The following applies: DBA/1J mice, 30 and 60 mg/kg orally twice a day. The procedure:
Effect in Mouse Collagen-Induced Arthritis Model
Incomplete Freund's Adjuvant (Chondrex, Inc., #7002) supplemented with M. Tuberculosis H37 Ra, Desiccated (Beckton Dickinson and Company, #231141) at 2.5 mg/mL and Bovine Type II Collagen, 2 mg/mL Solution (Chondrex, Inc., #20022) were mixed in a 1:1 ratio to form an emulsion.
Three groups of DBA/1J mice (10 animals/group) (6-week old, male) received 0.1 mL per animal of the emulsion which was given in small portions on Day 0 and Day 21 by intradermal injection at the base of the tail, thereby accomplishing the immunization. The solvent or the test compound solution was given twice a day orally every day from Day 18 to Day 36 (test compound doses in the respective groups: 0 mg/kg, 30 mg/kg, 60 mg/kg). The treatment solution was prepared with the similar solvent in the similar manner as Test Example 4.
After the boost on Day 21, the state of the arthritis onset in each extremity was scored visually once in 2 or 3 days according to the criteria shown in Table 7. The scores of all four extremities were summed up on each mouse basis, and the mean value of 10 animals in each group was represented as an arthritis score (normal “0” up to maximum “16”).

In data set [5] the test system is collagen-induced arthritis. Put plainly: Rat collagen-induced arthritis model. The class given is in vivo. The following applies: Lewis rat, 30 and 60 mg/kg orally twice a day. The procedure: Effect in Rat Collagen-Induced Arthritis Model
Incomplete Freund's Adjuvant (Sigma-Aldrich, #F5506) and Bovine Type II Collagen, 4 mg/mL Solution (Sichuan University, Lot.08H0497) were mixed in a 1:1 ratio to form an emulsion. Three groups of Lewis rat (10 animals/group) (5-6 week old, female) received 0.5 mL per animal of the emulsion which was given in small portions on Day 0 and Day 7 by intradermal injection at 3 sites, one site at the base of the tail (0.1 mL), and the rest of two sites (0.2 mL/site) were on the back of the rat near to the base of the tail, thereby accomplishing the immunization. The solvent or the test compound solution was given twice a day orally every day from Day 0 to Day 20 (test compound doses in the respective groups: 0 mg/kg, 30 mg/kg, 60 mg/kg). The treatment solution was prepared with the similar solvent in the similar manner as Test Example 4.
After the boost on Day 7, the state of the arthritis onset in each extremity was scored visually twice in a week according to the criteria shown in Table 8. The scores of all four extremities were summed up on each rat basis, and the mean value of 10 animals in each group was represented as an arthritis score (normal “0” up to maximum “16”).

T1 sequence (Q06187 whole entry): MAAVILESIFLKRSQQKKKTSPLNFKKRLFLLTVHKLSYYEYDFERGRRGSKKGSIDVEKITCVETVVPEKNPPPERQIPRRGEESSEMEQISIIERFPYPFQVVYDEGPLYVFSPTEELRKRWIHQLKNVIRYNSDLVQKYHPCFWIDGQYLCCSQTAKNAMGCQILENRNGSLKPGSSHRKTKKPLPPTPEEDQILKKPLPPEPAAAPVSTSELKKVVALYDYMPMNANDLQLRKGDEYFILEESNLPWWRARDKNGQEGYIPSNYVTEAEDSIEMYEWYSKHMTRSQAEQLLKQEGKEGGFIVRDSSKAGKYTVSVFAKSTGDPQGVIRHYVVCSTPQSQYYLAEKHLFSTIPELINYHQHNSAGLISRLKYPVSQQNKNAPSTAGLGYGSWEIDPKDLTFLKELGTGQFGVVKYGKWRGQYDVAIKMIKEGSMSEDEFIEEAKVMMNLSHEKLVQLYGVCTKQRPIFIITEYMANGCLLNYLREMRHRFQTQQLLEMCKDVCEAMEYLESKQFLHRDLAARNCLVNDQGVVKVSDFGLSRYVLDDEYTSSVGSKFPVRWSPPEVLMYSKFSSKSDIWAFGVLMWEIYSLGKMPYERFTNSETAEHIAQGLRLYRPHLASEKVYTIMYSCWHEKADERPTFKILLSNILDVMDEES

As to `Cn1cc(Nc2nc(N)nc(-c3cccc(-n4ccc5cc(C6CC6)cc(F)c5c4=O)c3CO)n2)cn1` [Example 1, 2-(3-{4-Amino-6-[(1-methyl-1H-pyrazol-4-yl)amino]-1,3,5-triazin-2-yl}-2-(hydroxymethyl)phenyl)-6-cyclopropyl-8-fluoroisoquinolin-1(2H)-one], the inhibition at 0.3 µM in data set [1] was not below 70%. In addition, the “Inhibition of leakage of the dye into the auricles (PCA reaction)” value in data set [2] is “inhibited the leakage of the dye in blood into the auricles significantly”. Further, the “Inhibition of change of intracellular calcium ion induced by BCR-stimulation” value in data set [3] is “in a concentration-dependent manner from a low concentration; also recorded: inhibits the BCR signal in the Ramos cells in a concentration dependent manner”. The “Toxic signs such as weight loss” value in data set [4] (Day 18 to Day 36) and in data set [5] (Day 0 to Day 20) was “able to circumvent any toxic signs such as weight loss” in each case. Moreover, the “Inhibition of onset of arthritis (arthritis score)” value in data set [4] (Day 18 to Day 36 (FIG. 3)) and in data set [5] (Day 0 to Day 20 (FIG. 4)) was “inhibited the onset of the arthritis in a dose dependent manner” each time.
`Cn1cc(Nc2nc(N)nc(-c3cccc(-n4ccc5cc(C6CC6)cc(F)c5c4=O)c3CO)n2)cc1C#N` [Example 2, 4-({4-Amino-6-[3-(6-cyclopropyl-8-fluoro-1-oxoisoquinolin-2(1H)-yl)-2-(hydroxymethyl)phenyl]-1,3,5-triazin-2-yl}amino)-1-methyl-1H-pyrrole-2-carbonitrile]: the inhibition at 0.3 µM in data set [1] is not below 70%.
